Test results from patent US20030226169A1, “DNA sequences encoding antifungal proteins” (priority 1995, published 2003).
≈ marks a conversion by molar mass, not a printed value. Like-named read-outs stand apart in the source and are kept apart here. Residues, ends and D or L forms follow the SMILES beside them.

Columns and labels:
[1] = test system: Fusarium culmorum (IMI 180420); test: Antifungal growth inhibition microplate assay (photospectrometry); type: cell-based; conditions: ½ PDB; for IC50 / F CULMORUM IC / F CULMORUM IC50: the source numbers peptides by N-terminal amino acid; for F CULMORUM IC: Table 6 / FIG. 8: Rs-AFP1-based 9-mer split peptides; for F CULMORUM IC50: Table 7 / FIG. 8: Rs-AFP1-based 12-mer split peptides
Method: (§1) The following fungal strains were used: Alternaria brassicicola (MUCL 20297), Ascophyta pisi (MUCL 30164), Botrytis cinerea (MUCL 30158), Fusarium culmorum (IMI 180420) and Verticillium dahliae (MUCL 19210).
(§2) Fungi were grown on six cereal agar plates at room temperature and under white fluorescent light except for F culmorum and V dahliae which were grown in the dark. The duration of the spore harvest varied between 10 and 25 days depending on the strain. Spores were collected as follows. Five to ten ml of sterile milli-Q water was poured into each dish and the surface of the agar was rubbed with a sterile spatula to obtain a suspension containing mycelium and spores. This suspension was filtered through a sterile glasswool-plugged funnel and the filtrate containing the spores was collected in a sterile polypropylene centrifuge tube. The A brassicicola spores were suspended in sterile 0.1 Tween 20 (Merk, 822184) due to their hydrophobic nature. The spore suspensions were then washed twice by centrifugation at 2,400×g for 15 minutes and resuspended in a small volume of steril milli-Q water. The spore density was determined in a counting chamber and then adjusted to 4×10^7 spores per ml. Aliquots of the spore suspension were transferred to sterile microtubes and an equal volume of sterile 50% glycerol (Merck, 4091) was added to each tube so that a final spore suspension of 2×10^7 spores per ml in 25% glycerol was obtained. After careful mixing of the stock, the spore suspension was transferred in 100 μl aliquots to sterile microtubes and stored at −80° C.
(§3) Antifungal activity was measured by photospectrometry as described by Broekaert et al, (1990, FEMS Microbiol Lett, 69:55-60). Tests were performed by adding 20 μl of test solution and 80 μl of a fungal spore suspension (2×10^4 spores/ml) per well in a sterile flat-bottom 96-well microtiterplate. The spore suspension was prepared by diluting the stock spore suspension ([…] in 25% glycerol) 1:1000 in half-strength potato dextrose broth. A positive growth control consisting of eight wells containing 20 μl of sterile milli-Q water and 80 μl of the fungal spore suspension was included in each test. The microtiterplates were incubated (with the lid on) in an aerated place at room temperature and under conditions of darkness for all test organisms.
(§4) After 30 minutes of incubation (when the spores are settled on the well bottom) the optical density was measured in a microplate reader (Bio Rad 3550-UV) at 595 nm. Incubation of the microtiterplates continued until the optical density of the control microculture was between 0.250 and 0.500, which took approximately 72 hours (96 hours for V dahliae). Percentage of growth inhibition (% GI) was estimated as 100 times the ratio of the corrected absorbance of the control microculture minus the corrected absorbance of the test microculture over the corrected absorbance of the control microculture at 595 nm. The corrected absorbance values equal the absorbance at 595 nm of the culture measured after 72 or 96 hours minus the absorbance at 595 nm measured after 30 minutes.
(§5) % GI=[(Acontrol−Atest/Acontrol]×100
(§6) where Acontrol=(A72/96h−A30min)control
(§7) The IC50 value is defined as the concentration that gives a 50% growth inhibition after 72 or 96 hours of incubation. The minimum inhibitory concentration (MIC) corresponds to the minimum concentration that gives 100% growth inhibition after 72 or 96 hours incubation.

[2] = test system: Ascophyta pisi (MUCL 30164); type: cell-based; conditions: ½ PDB; for A PISI IC: the source numbers peptides by N-terminal amino acid
Method: as §1, §2, §3, §4, §5, §6, §7

[3] = Table 3 / FIG. 6: Rs-AFP2-based 9-mer split peptides
[4] = Table 3: Rs-AFP2-based 9-mer split peptides, duplicate
[5] = Table 6: Rs-AFP1-based 9-mer split peptides
[6] = Table 4 / FIG. 6: Rs-AFP2-based 12-mer split peptides
[7] = Table 4: Rs-AFP2-based 12-mer split peptides, triplicate
[8] = Table 7: Rs-AFP1-based 12-mer split peptides

| Compound | IC50 [1, 3] | MIC [1, 4] | F CULMORUM IC [1] | F CULMORUM MIC [1, 5] | A PISI MIC [2, 5] | A PISI IC [2, 5] | IC50 [1, 6] | MIC [1, 7] | F CULMORUM IC50 [1] | F CULMORUM MIC [1, 8] | A PISI IC50 [2, 8] | A PISI MIC [2, 8] |
| --- | --- | --- | --- | --- | --- | --- | --- | --- | --- | --- | --- | --- |
| Ac-KARHGSCNY-NH2 [compound 76] | 162 µg/mL | 300 µg/mL | 169 µg/mL | 250 µg/mL | >400 µg/mL | 342 µg/mL |  |  |  |  |  |  |
| CC[C@H](C)[C@H](NC(=O)[C@H](CS)NC(=O)[C@H](CCCCN)NC(=O)[C@H](Cc1c[nH]cn1)NC(C)=O)C(=O)N[C@@H](CS)C(=O)N[C@@H](Cc1ccc(O)cc1)C(=O)N[C@@H](Cc1ccccc1)C(=O)N1CCC[C@H]1C(=O)N[C@@H](CS)C(N)=O [compound 89] (Ac-HKCICYFPC-NH2) |  |  | 233 µg/mL |  |  | 70 µg/mL |  |  |  |  |  |  |
| Ac-CNYVFPAHK-NH2 [compound 82] | 77 µg/mL | 100 µg/mL | 113 µg/mL | 150 µg/mL | 400 µg/mL | 265 µg/mL |  |  |  |  |  |  |
| CC[C@H](C)[C@H](NC(=O)[C@H](CS)NC(=O)[C@H](CCCCN)NC(=O)[C@H](Cc1c[nH]cn1)NC(=O)[C@H](C)NC(C)=O)C(=O)N[C@@H](CS)C(=O)N[C@@H](Cc1ccc(O)cc1)C(=O)N[C@@H](Cc1ccccc1)C(=O)N1CCC[C@H]1C(N)=O [compound 88] (Ac-AHKCICYFP-NH2) | 35 µg/mL (≈ 31.2 µM) | 50 µg/mL (≈ 44.5 µM) | 21 µg/mL | 37.5 µg/mL | 25 µg/mL | 18 µg/mL |  |  |  |  |  |  |
| Ac-ARHGSCNYV-NH2 [compound 77] | 189 µg/mL | 300 µg/mL | 193 µg/mL | 300 µg/mL | 200 µg/mL | 143 µg/mL |  |  |  |  |  |  |
| Ac-EKARHGSCNYVF-NH2 [compound 118] |  |  |  |  |  |  | 154 µg/mL | 200 µg/mL | 63 µg/mL | 100 µg/mL | 91 µg/mL | 200 µg/mL |
| Ac-KARHGSCNYVFP-NH2 [compound 119] |  |  |  |  |  |  | 37 µg/mL | 50 µg/mL | 33 µg/mL | 50 µg/mL | 66 µg/mL | 100 µg/mL |
| 114 (CIRLEKARHGSC; listed as Raphanus sativus) [compound 114] |  |  |  |  |  |  | 74 µg/mL | 100 µg/mL | 328 µg/mL | 400 µg/mL | 318 µg/mL | >400 µg/mL |
| Ac-LEKARHGSCNYV-NH2 [compound 117] |  |  |  |  |  |  | 327 µg/mL | >400 µg/mL | 347 µg/mL | 400 µg/mL | 293 µg/mL | 400 µg/mL |
